Test results published in patent publication US20230339891A1, “URACIL DERIVATIVES AS MER-AXL INHIBITORS” (BRISTOL-MYERS SQUIBB COMPANY, priority 2018, published 2023).

Key:
GST-MERTK 578-872 = GST-MERTK 578-872 (Homo sapiens (Human), UniProt Q12866); assay: MERTK kinase homogeneous time resolved fluorescence (HTRF) binding assay; conditions: 1 nM kinase, fluorescein-labeled kinase tracer at Kd, 60 minutes at room temperature; read-out: Mer HTRF IC50
Method in brief: (§1)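 HTRF binding read-out after 60 min at room temperature, expressed as the 520/495 nm (fluorescein/terbium) ratio. Inhibition normalized to no-protein (100%) and vehicle (0%) controls. IC50 from 11-point dose-response; compounds from 10 mM DMSO stocks.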

HIS-AXL 473-End = HIS-AXL 473-End (Homo sapiens (Human), UniProt P30530); assay: AXL kinase homogeneous time resolved fluorescence (HTRF) binding assay; conditions: 1 nM kinase, fluorescein-labeled kinase tracer at Kd, 60 minutes at room temperature
HIS-AXL 473-End, sequence (P30530 473-894): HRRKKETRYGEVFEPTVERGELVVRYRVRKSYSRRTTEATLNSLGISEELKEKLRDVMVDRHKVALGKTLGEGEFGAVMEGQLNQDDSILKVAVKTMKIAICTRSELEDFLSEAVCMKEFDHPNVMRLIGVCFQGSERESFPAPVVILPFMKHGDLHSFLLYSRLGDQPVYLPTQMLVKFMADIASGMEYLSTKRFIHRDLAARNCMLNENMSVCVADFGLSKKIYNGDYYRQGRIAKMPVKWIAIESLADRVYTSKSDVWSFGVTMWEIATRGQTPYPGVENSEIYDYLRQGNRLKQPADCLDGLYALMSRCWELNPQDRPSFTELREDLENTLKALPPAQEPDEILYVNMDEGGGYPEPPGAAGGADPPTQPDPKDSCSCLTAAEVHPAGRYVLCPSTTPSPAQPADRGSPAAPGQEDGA
Method in brief: as §1

GST-MERTK 578-872, sequence (Q12866 578-872): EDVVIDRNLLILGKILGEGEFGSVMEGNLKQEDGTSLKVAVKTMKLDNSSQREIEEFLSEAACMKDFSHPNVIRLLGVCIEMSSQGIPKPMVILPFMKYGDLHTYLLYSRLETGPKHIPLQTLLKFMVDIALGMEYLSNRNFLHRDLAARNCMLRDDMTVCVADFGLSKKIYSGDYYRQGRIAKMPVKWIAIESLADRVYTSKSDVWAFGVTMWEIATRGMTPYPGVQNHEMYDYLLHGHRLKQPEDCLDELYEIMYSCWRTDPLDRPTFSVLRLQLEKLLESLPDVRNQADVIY

| Compound | IC50 (GST-MERTK 578-872) [nM] | IC50 (HIS-AXL 473-End) [nM] |
| --- | --- | --- |
| CC(C)n1cc(C(=O)Nc2ccc(Oc3ccnc(Nc4ccc(C(F)(F)F)c(N5CCN(S(C)(=O)=O)CC5)n4)c3)c(F)c2)c(=O)n(-c2ccc(F)cc2)c1=O [Example 138, N-{3-fluoro-4-[(2-{[6-(4-methanesulfonylpiperazin-1-yl)-5-(trifluoromethyl)pyridin-2-yl]amino}pyridin-4-yl)oxy]phenyl}-3-(4-fluorophenyl)-2,4-dioxo-1-(propan-2-yl)-1,2,3,4-tetrahydropyrimidine-5-carboxamide] | 20 | 23 |
| CC(C)n1cc(C(=O)Nc2ccc(Oc3ccnc(Nc4ccc(S(C)(=O)=O)cn4)c3)c(F)c2)c(=O)n(-c2ccc(F)cn2)c1=O [Example 37, N-[3-Fluoro-4-({2-[(5-methanesulfonylpyridin-2-yl)amino]pyridin-4-yl}oxy)phenyl]-3-(5-fluoropyridin-2-yl)-2,4-dioxo-1-(propan-2-yl)-1,2,3,4-tetrahydropyrimidine-5-carboxamide] | 14 | 2.6 |
| CC(C)n1cc(C(=O)Nc2ccc(Oc3ccnc(Nc4ccc(-c5nccs5)cn4)c3)c(F)c2)c(=O)n(-c2ccc(F)cc2)c1=O [Example 23] | 55 | 31 |
| Cc1cnc(Nc2cc(Oc3ccc(NC(=O)c4cn(C(C)C)c(=O)n(-c5ccc(F)cc5)c4=O)cc3F)ccn2)cc1C [Example 6] | 37 | 7.9 |
| CC(C)n1cc(C(=O)Nc2ccc(Oc3ccnc(Nc4ccc(C(=O)NCC(C)(C)O)cn4)c3)c(F)c2)c(=O)n(-c2ccc(F)cc2)c1=O [Example 92, N-(3-Fluoro-4-{[2-({5-[(2-hydroxy-2-methylpropyl)carbamoyl]pyridin-2-yl}amino)pyridin-4-yl]oxy}phenyl)-3-(4-fluorophenyl)-2,4-dioxo-1-(propan-2-yl)-1,2,3,4-tetrahydropyrimidine-5-carboxamide] | 1.9 | 0.4 |
| COC[C@H](C)n1cc(C(=O)Nc2ccc(Oc3ccnc(Nc4ccc(S(=O)(=O)N(C)C)cn4)c3)c(F)c2)c(=O)n(-c2ccc(F)cc2)c1=O [Example 45] | 40 | 21 |
| CC(C)n1cc(C(=O)Nc2ccc(Oc3ccnc(Nc4ccc(N5CCOCC5)cn4)c3)c(F)c2)c(=O)n(-c2ccc(F)cc2)c1=O [Example 21] | 164 | 39 |
| CC(C)n1cc(C(=O)Nc2ccc(Oc3ccnc(Nc4ccc(S(=O)(=O)N5CCCCC5)cn4)c3)c(F)c2)c(=O)n(-c2ccc(F)cc2)c1=O [Example 76, N-{3-Fluoro-4-[(2-{[5-(piperidine-1-sulfonyl)pyridin-2-yl]amino}pyridin-4-yl)oxy]phenyl}-3-(4-fluorophenyl)-2,4-dioxo-1-(propan-2-yl)-1,2,3,4-tetrahydropyrimidine-5-carboxamide] | 38 | 18 |
| CC(C)n1cc(C(=O)Nc2ccc(Oc3ccnc(Nc4ccc(C#N)c(N5CC[C@H](O)C5)n4)c3)c(F)c2)c(=O)n(-c2ccc(F)cc2)c1=O [Example 118] | 1.5 | 1.4 |
| CC(C)NS(=O)(=O)c1ccc(Nc2cc(Oc3ccc(NC(=O)c4cn(C(C)C)c(=O)n(-c5ccc(F)cc5)c4=O)cc3F)ccn2)nc1 [Example 78] | 9.8 | 986 |
| Cc1cccc(-n2c(=O)c(C(=O)Nc3ccc(Oc4ccnc(Nc5ccc(S(=O)(=O)N(C)C)cn5)c4)c(F)c3)cn(C(C)C)c2=O)c1 [Example 70] | 14 | 14 |
| CC(C)n1cc(C(=O)Nc2ccc(Oc3ccnc(Nc4ccc(S(=O)(=O)N(C)C)cn4)c3)c(F)c2)c(=O)n(C2CCCCC2)c1=O [Example 53] | 487 | 256 |
| O=C(Nc1ccc(Oc2ccnc(Nc3ccc(Cl)cn3)c2)c(F)c1)c1cn(C2CC2)c(=O)n(-c2ccc(F)cc2)c1=O [Example 36, N-[4-({2-[(5-chloropyridin-2-yl)amino]pyridin-4-yl}oxy)-3-fluorophenyl]-1-cyclopropyl-3-(4-fluorophenyl)-2,4-dioxo-1,2,3,4-tetrahydropyrimidine-5-carboxamide] | 38 | 11 |
| CC(C)n1cc(C(=O)Nc2ccc(Oc3ccnc(Nc4ccc(C(F)F)cn4)c3)c(F)c2)c(=O)n(-c2ccc(F)cc2)c1=O [Example 10] | 43 | 15 |
| CC(C)n1cc(C(=O)Nc2ccc(Oc3ccnc(Nc4ccnc(N5CCCC5)n4)c3)c(F)c2)c(=O)n(C2CCCCC2)c1=O [Example 109] | 70 | 62 |
